Source: patent US20100069393A1, “METHOD OF TREATMENT AND AGENTS USEFUL FOR SAME” (PRANA BIOTECHNOLOGY LIMITED, priority 2006, published 2010)

Key:
[1] = Cytotoxicity: viability of M17 cells; conditions: human, M17 neuroblastoma cells, Cytotoxicity (% viable at 1 and 10 uM); for viability at 1 uM: test compound 1 uM; for viability at 10 uM: test compound 10 uM
[2] = Neurotoxicity assay: MTS viability of primary cortical neuronal cultures; assay type: cell-based, mouse; conditions: BL6Jx129sv, mouse, primary cortical neuronal cultures, Neuronal cells, read-out: Cytotoxicity (% viable at 1 and 10 uM); for viability at 4 days, 1 uM: test compound 1 uM; for viability at 4 days, 10 uM: test compound 10 uM
Procedure: Media was then replaced with Neurobasal media (Invitrogen Life Technologies) and B27 supplements (Invitrogen Life Technologies). Cultures were maintained at 37° C. in 5% CO2. Prior to experimentation, the culture medium was replaced with Neurobasal media and B27 minus antioxidants (Invitrogen Life Technologies).
Cell viability is determined using the MTS assay. Culture medium is replaced with fresh neurobasal medium plus B27 supplements minus antioxidants. 1/10th volume MTS solution (Cell Titre 96 Aqueous One, Promega Corporation) and incubated at 37° C., 2 hrs. 200 microlitre aliquots are measured with a spectrophotometer at 560 nm.
Neuronal cortical cells were cultured for five days as per Assay 2 in NB media and B27 supplement.
On day six the test compounds were added to the neuronal cell cultures in NB media and B27 supplement minus antioxidants.
Test compounds were dissolved in 100% DMSO to a concentration of 2.5 mM (10 mM if excess compound was weighed out per vial—then diluted to 2.5 mM). […] Test compounds were not added directly to cells, instead they were added to a 48 well ‘Drug Plate’ as comprised below:
The Drug Plate was incubated at 37° C. for 15 mins. 200 μl of each well was added in triplicate to the corresponding cell plate. The cell plate was incubated at 37 C, for 4 days.
On completion of the assay, 1/10 volume MTS was added per well of plate (i.e. 25 μl/250 μl). The plates were incubated at 37 C for 2 hrs, and then absorbance was read at 560 nm.

| Structure (SMILES) | viability at 1 uM [1] [%] | viability at 10 uM [1] [%] | viability at 4 days, 1 uM [2] [%] | viability at 4 days, 10 uM [2] [%] |
| --- | --- | --- | --- | --- |
| O=c1c2c(Cl)cc(Cl)c(O)c2ncn1-c1nc2ccccc2s1 | 82.7 | 63.9 | – | – |
| O=c1c2ccc(I)c(O)c2ncn1CCNS(=O)(=O)c1ccc(F)cc1 | 96.5 | 43 | – | – |
| CCCCc1cnc2c(O)c(-c3cccnc3)ccn2c1=O | 92.1 | 38.2 | – | – |
| CCCCNC(=O)c1cnc2c(O)cccn2c1=O | 98.8 | 48.4 | – | – |
| Cc1nc2ccccc2c(=O)n1O | 101 | 115 | – | – |
| CCCCc1cnc2c(O)c(-c3ccc(F)cc3)ccn2c1=O | 101 | 37.9 | – | – |
| CCCNC(=O)Cn1cnc2c(O)c(I)ccc2c1=O | 84.3 | 95.5 | – | – |
| O=c1c2c(Cl)cc(Cl)c(O)c2nc2n1CCC2 | 115 | 93.9 | – | – |
| CCN(CC)C(=O)Cn1cnc2c(O)c(I)ccc2c1=O | 92.2 | 98.7 | – | – |
| O=C1NC(=O)c2cc(-n3cnc4c(O)cccc4c3=O)ccc21 | 102 | 103 | – | – |
| O=c1c2cccc(O)c2ncn1CC1CC1 | 104 | 111 | – | – |
| O=C1c2ccccc2C(=O)N1CCn1cnc2c(O)cccc2c1=O | 104 | 106 | – | – |
| O=C1c2ccccc2C(=O)N1CCn1cnc2c(O)c(I)ccc2c1=O | 127 | 105 | – | – |
| O=c1c2c(Cl)ccc(O)c2ncn1CC1CC1 | 86.3 | 57.6 | – | – |
| O=C(Nc1cnc2ccccc2c1)c1cnc2c(O)cccn2c1=O | 102 | 32.8 | – | – |
| CCCCCn1cnc2c(O)c(I)ccc2c1=O | 86.3 | 38.5 | – | – |
| CCN(CC)C(=O)Cn1cnc2c(O)cccc2c1=O | 118 | 102 | – | – |
| CCC(C)Cn1cnc2c(O)c(I)ccc2c1=O (stereo not shown) | 42.8 | 19.3 | – | – |
| O=C1c2ccccc2C(=O)N1CCn1cnc2c(O)c(Cl)cc(Cl)c2c1=O | 104 | 101 | – | – |
| CCNCCn1cnc2c(O)c(Cl)cc(Cl)c2c1=O | 100 | 107 | – | – |
| CCN(CC)CCn1cnc2c(O)c(I)ccc2c1=O | 106 | 41.4 | – | – |
| O=c1c2c(Cl)ccc(O)c2ncn1Cc1ccccn1 | 93.6 | 88.4 | – | – |
| O=c1c(-c2ccc(F)cc2)cnc2c(O)cccn12 | 75.3 | 33.8 | – | – |
| CCn1cnc2c(O)ccc(Cl)c2c1=O | 101 | 85.4 | – | – |
| O=C(Cn1cnc2c(O)cccc2c1=O)Nc1ccccn1 | 110 | 98.2 | – | – |
| CCCCCn1cnc2c(O)c(Cl)cc(Cl)c2c1=O | 81.3 | 56.8 | – | – |

| Structure (SMILES) | viability at 1 uM [1] [%] | viability at 10 uM [1] [%] | viability at 4 days, 1 uM [2] [%] | viability at 4 days, 10 uM [2] [%] |
| --- | --- | --- | --- | --- |
| O=c1c2cccc(O)c2ncn1Cc1ccc(F)cc1 | 97.2 | 60.5 | – | – |
| O=c1c2c(Cl)cc(Cl)c(O)c2ncn1CC1CCN(Cc2ccccc2)CC1 | 109 | 83.4 | – | – |
| O=c1c2cccc(O)c2ncn1-c1nc2ccc(F)cc2s1 | 99.1 | 73.7 | – | – |
| O=c1c2c(Cl)cc(Cl)c(O)c2ncn1CCN1Cc2ccccc2C1 | 103 | 62.1 | – | – |
| CCCCc1cnc2c(O)c(-c3cccc(OC)c3)ccn2c1=O | 94.5 | 59.1 | – | – |
| O=c1c2c(Cl)cc(Cl)c(O)c2ncn1CCNC1CC1 | 98.8 | 96.2 | – | – |
| Cc1noc(-n2cnc3c(O)c(Cl)cc(Cl)c3c2=O)c1C | 99.6 | 95.4 | – | – |
| CNS(=O)(=O)Cc1ccc(-n2cnc3c(O)c(Cl)cc(Cl)c3c2=O)cc1 | 93 | 98 | – | – |
| O=c1c2cccc(O)c2ncn1-c1nc2ccccc2[nH]1 | 108 | 103 | – | – |
| CCN(CC)CCNC(=O)c1cnc2c(O)cccn2c1=O | 115 | 103 | – | – |
| O=C(Nc1nc2ccc(F)cc2s1)c1cnc2c(O)cccn2c1=O | 60.1 | 34.2 | – | – |
| O=c1c2cccc(O)c2ncn1Cc1nc2ccccc2[nH]1 | 107 | 108 | – | – |
| O=c1c2cccc(O)c2ncn1-c1ccc(F)cc1F | 104 | 104 | – | – |
| CCN(CC)C(=O)Cn1cnc2c(O)c(Cl)cc(Cl)c2c1=O | 122 | 104 | – | – |
| O=c1c2cccc(O)c2ncn1-c1ccc(F)cc1 | 92.7 | 67.5 | – | – |
| O=c1c2cccc(O)c2ncn1CCc1ccccn1 | 107 | 96.2 | – | – |
| O=c1c2cccc(O)c2ncn1Cc1ccccn1 | 109 | 96 | – | – |
| Nn1cnc2c(O)c(Cl)cc(Cl)c2c1=O | 113 | 104 | 103 | 101 |
| CCCCn1cnc2c(O)c(Cl)cc(Cl)c2c1=O | 105 | 95.4 | 104 | 85 |
| O=c1c2cccc(O)c2ncn1Cc1ccccc1 | 98.5 | 90.4 | – | – |
| O=c1c2c(Cl)cc(I)c(O)c2ncn1-c1cccnc1 | 97.4 | 95 | – | – |
| CCc1cnc2c(O)cccn2c1=O | 96.1 | 27.1 | – | – |
| CC(C)Cn1c(CN(C)C)nc2c(O)c(Cl)cc(Cl)c2c1=O | 104 | 61.5 | – | – |
| O=c1c2c(Cl)cc(I)c(O)c2ncn1Cc1ccccn1 | 102 | 99.2 | – | – |
| CCCCc1cnc2c(O)c(-c3ccc(OC)cc3)ccn2c1=O | 79.2 | 64.4 | – | – |
| O=c1c2ccc(I)c(O)c2ncn1-c1ccc(F)cc1 | 94.6 | 30.2 | – | – |

| Structure (SMILES) | viability at 1 uM [1] [%] | viability at 10 uM [1] [%] | viability at 4 days, 1 uM [2] [%] | viability at 4 days, 10 uM [2] [%] |
| --- | --- | --- | --- | --- |
| CCC(C)Cn1cnc2c(O)cccc2c1=O (stereo not shown) | 103 | 47.2 | – | – |
| O=c1c2cccc(O)c2ncn1-c1cccnc1 | 106 | 110 | – | – |
| O=c1c2cccc(O)c2ncn1Cc1ccncc1 | 105 | 104 | – | – |
| CCc1cnc2c(O)cccn2c1=S | 93.3 | 73.7 | – | – |
| O=C(CNC(=O)c1cc(O)c2cccc(O)c2n1)NCc1ccccn1 | – | – | 93 | 93 |
| N#Cc1ccc2cccc(O)c2n1 | – | – | 94 | 97 |
| O=C(NCc1ccc(F)cc1)c1cnc2c(O)cccn2c1=O | 76.7 | 54.2 | – | – |
| O=C(Nc1ccc(F)cc1F)c1cnc2c(O)cccn2c1=O | 99.4 | 67.1 | – | – |
| O=c1c2c(Cl)cc(Cl)c(O)c2ncn1CC1CCNCC1 | – | – | 97 | 96 |
| Oc1c(-c2ccccc2)cc(Cl)c2cccnc12 | – | – | 93 | 72 |
| Oc1cccc2ccc(-c3ccccn3)nc12 | – | – | 107 | 75 |
| Oc1c(Br)cc(-c2cc(F)cc(F)c2)c2cccnc12 | – | – | 95 | 95 |
| NC(=O)c1ccc2c(Cl)cc(Cl)c(O)c2n1 | – | – | 74 | 86 |
| COc1c(Cl)cc(Cl)c2c(=O)n(N)cnc12 | – | – | 99 | 93 |
| CCCS(=O)(=O)NCCn1cnc2c(O)c(I)ccc2c1=O | 104 | 98.6 | – | – |
| CCC(C)Cn1cnc2c(O)c(Cl)cc(Cl)c2c1=O (stereo not shown) | 85.1 | 39.4 | – | – |
| Oc1cccc2ccc(CN(CCc3c[nH]cn3)Cc3c[nH]cn3)nc12 | – | – | 97 | 26 |
| CCCn1cnc2c(O)ccc(Cl)c2c1=O | 89.4 | 79.4 | – | – |
| Oc1ccc(CCc2ccc3cccc(O)c3n2)cc1 | – | – | 89 | 86 |
| O=c1c(CCCC2CCSS2)cnc2c(O)cccn12 (stereo not shown) | 106 | 27.2 | – | – |
| Oc1c(-c2cc3ccccc3s2)cc(Cl)c2cccnc12 | – | – | 87 | 32 |
| Oc1c(Cl)cc(Cl)c2ccc(-c3ccccn3)nc12 | – | – | 55 | 31 |
| Oc1c(-c2ccc(F)cc2F)cc(Cl)c2cccnc12 | – | – | 90 | 42 |
| COc1ccc(-n2cnc3c(O)cccc3c2=O)cn1 | 97.8 | 110 | – | – |
| Oc1c(I)cc(I)c2cccnc12 | – | – | 91 | 95 |
| CCCc1cnc2c(O)c(Cl)ccn2c1=O | 98.1 | 38.9 | – | – |
